According to EP0313846B1, “Method for controlling chronic respiratory disease, and necrotic enteritis in avian species” (AMERICAN CYANAMID COMPANY, priority 1987, dated 1989):
Values after ≈ are worked out from the molar mass of the structure shown. Read-outs that look alike come from different tables or passages of the source.

Legend:
[1] = test system: Mycoplasma gallisepticum "R"; test: Minimum inhibitory concentration assay for Mycoplasma gallisepticum (microdilution, Table VI); format: cell-based; conditions: Mycoplasmoides gallisepticum
Procedure: • 1. […] Both cultures are incubated at 37°C. […] Appropriate solvent controls are also included. • 4.

Mycoplasma gallisepticum = test: Treatment of Mycoplasma gallisepticum caused chronic respiratory disease in poultry; format: in vivo; conditions: for Final Mean Body Weight (g) of Survivors / Overall % Mortality / Overall Feed-to-Gain: 7 days pre- and 7 days postchallenge; for Final Mean Body Weight (g) of Survivors / Overall % Mortality / Overall Feed-to-Gain / Mean Air Sac Lesion Scores: M. gallisepticum challenged birds; for Mean Air Sac Lesion Scores: score 0-3
Procedure: This study is conducted to evaluate the efficacy of antibiotic LL-E19020α against Mycoplasma gallisepticum caused chronic respiratory disease in poultry. The antibiotic is fed continuously at 10 and 50 g/ton for 7 days pre- and 7 days postchallenge. Birds similarly fed a diet containing 100 g/ton chlortetracycline serve as a positive control group. Infected and noninfected, nonmedicated control groups are also included. After 7 days on respective treatment diets, birds are challenged with M. gallisepticum (MG) into the right and left post-thoracic air sacs. The air sacs are cultured for the presence of Mycoplasma from all birds dying postchallenge. The air sacs of all birds are scored based on gross lesions upon necropsy at death or at study end. Survivors at study end are bled prior to necropsy for Mycoplasma gallisepticum serology testing. Body weight and feed intake measurements are made at specified intervals during the study.

[2] = test system: Bordetella bronchiseptica; test: Minimum inhibitory concentration by agar dilution (Table V); format: cell-based; conditions: Bordetella bronchiseptica (4 strains tested)
Streptococcus pyogenes = test: as above; format: cell-based; conditions: Streptococcus pyogenes (2 strains tested)
Salmonella choleraesuis = test: as above; format: cell-based; conditions: Salmonella choleraesuis (2 strains tested)
Treponema hyodysenteriae [3] = test: T. hyodysenteriae disk test (primary in vitro disk diffusion test); format: cell-based; conditions: disks soaked in 2.5 mg/ml solution, zones of inhibited hemolysis
[4] = test system: Staphylococcus aureus Smith; test: In vivo antibacterial activity in infected mice (Table III); design: species or system female CD-1 mice; conditions: S. aureus Smith, 30 minutes before infection
[5] = test system: Pasteurella multocida 31081B; test: Pasteurella disk test (primary in vitro disk diffusion test); format: cell-based; conditions: disks soaked in 2.5 mg/ml solution of test compound, zones of inhibition
Procedure: (§1) Zones of inhibition are recorded.

[6] = test system: Pasteurella haemolytica 30660; test: as above; format: cell-based; conditions: disks soaked in 2.5 mg/ml solution of test compound, zones of inhibition
Procedure: as §1

[7] = test system: Clostridium perfringens type C; format: in vivo, broiler chicks; conditions: infected chicks, treatment mean; for Lesion Scores: intestinal lesion score 0-4, day 19
Peptococcus magnus = test: In vitro antibacterial activity, standard agar dilution method (Table II); format: cell-based; conditions: 18 hours incubation
Procedure: (§2) The in vitro antibacterial activity of LL-E19020α and β was determined against a spectrum of gram-positive and gram-negative bacteria by a standard agar dilution method. Mueller-Hinton agar containing 5% sheep blood and two-fold decreasing concentrations of either LL-E19020α or β were poured into petri dishes. The agar surfaces were inoculated with 1 to 5x10⁴ colony forming units of bacteria by means of the Steers replicating device. The lowest concentration of antibiotic that inhibited growth of a bacterial strain after 18 hours incubation was recorded as the minimal inhibitory concentration for that strain.

Streptococcus pneumoniae = test: as above; format: cell-based; conditions: 18 hours incubation
Procedure: as §2

[8] = test system: Streptococcus sp. (β-hemolytic); test: as above; format: cell-based; conditions: 18 hours incubation
Procedure: as §2

[9] = test system: Clostridium difficile ATCC 17858; test: as above; format: cell-based; conditions: 18 hours incubation
Procedure: as §2

Staphylococcus aureus = test: Minimum inhibitory concentration by agar dilution (Table V); format: cell-based; conditions: Staphylococcus aureus (7 strains tested)
Escherichia coli = test: as above; format: cell-based; conditions: Escherichia coli (2 strains tested)
[10] = test system: Clostridium perfringens ATCC 13124; format: cell-based; conditions: 18 hours incubation
Treponema hyodysenteriae [11] = test: Minimum inhibitory concentration by microdilution (Table VI); format: cell-based
Streptococcus uberis = test: Minimum inhibitory concentration by agar dilution (Table V); format: cell-based; conditions: Streptococcus uberis (1 strain tested)
Pasteurella haemolytica = test: as above; format: cell-based; conditions: Pasteurella haemolytica (3 strains tested)
Streptococcus faecalis = test: as above; format: cell-based; conditions: Streptococcus faecalis (1 strain tested)
[12] = test system: Streptococcus pyogenes C203; test: In vivo antibacterial activity in infected mice (Table III); design: species or system female CD-1 mice; conditions: S. pyogenes C203, mice, 30 minutes before infection
Streptococcus agalactiae = test: Minimum inhibitory concentration by agar dilution (Table V); format: cell-based; conditions: Streptococcus agalactiae (4 strains tested)
[13] = 100 g/ton in feed (positive control)
[14] = Treponema hyodysenteriae B78 (ATCC 27164)
[15] = Treponema hyodysenteriae B204 (ATCC 31212)
[16] = single subcutaneous dose 4 mg/kg
[17] = single subcutaneous dose 16 mg/kg
[18] = single subcutaneous dose 64 mg/kg
[19] = 50 grams per ton of feed, Mycoplasma gallisepticum infected chicks

## CN(C)[C@@H]1C(O)=C(C(N)=O)C(=O)[C@@]2(O)C(O)=C3C(=O)c4c(O)ccc(Cl)c4[C@@](C)(O)[C@H]3C[C@@H]12 [CTC, Chlortetracycline, reference compound]
[1]
  MIC: 0.5 mg/L (≈ 1.04 µM)
Mycoplasma gallisepticum; [13]
  Final Mean Body Weight (g) of Survivors: 398 g
  Overall % Mortality: 25.0%
  Overall Feed-to-Gain: 1.83
  Mean Air Sac Lesion Scores: 1.88

## C/C=C\C=C\[C@@H]1O[C@](O)([C@H](CO[C@H]2C[C@@H](OC)[C@@H](O[C@@H]3C[C@@H](OC)[C@@H](O[C@H]4C[C@H](OC)[C@H](O)[C@H](C)O4)[C@H](C)O3)[C@@H](C)O2)C(=O)NC/C=C/C=C(\C)[C@@H](OC)[C@H](C)[C@H]2C[C@H](O)[C@H](/C=C/C=C/C=C/C(=O)O)O2)[C@H](OC(=O)Cc2ccccc2)[C@H](O)C1(C)C [LL-E19020α]
[2]
  MIC: >256 mg/L
Streptococcus pyogenes
  MIC: 2 mg/L (≈ 1.63 µM)
Salmonella choleraesuis
  MIC: >256 mg/L
Treponema hyodysenteriae [3]; [14]
  ZONE SIZE: 0 mm
Treponema hyodysenteriae [3]; [15]
  ZONE SIZE: 15 mm
[4]; [16]
  Survival Ratios 7 Days After Infection: 2/5
[4]; [17]
  Survival Ratios 7 Days After Infection: 3/5
[4]; [18]
  Survival Ratios 7 Days After Infection: 3/5
[4]; single subcutaneous dose 256 mg/kg
  Survival Ratios 7 Days After Infection: 3/5
[5]
  ZONE SIZE: 15 mm
[6]
  ZONE SIZE: 13 mm
Mycoplasma gallisepticum; 10 g/ton in feed
  Final Mean Body Weight (g) of Survivors: 336 g
  Overall % Mortality: 41.3%
  Overall Feed-to-Gain: 1.88
  Mean Air Sac Lesion Scores: 2.04
Mycoplasma gallisepticum; 50 g/ton in feed
  Final Mean Body Weight (g) of Survivors: 349 g
  Overall % Mortality: 36.3%
  Overall Feed-to-Gain: 1.84
  Mean Air Sac Lesion Scores: 2.11
Mycoplasma gallisepticum; [19]
  feed to gain ratios compared with infected nonmedicated chicks: better feed to gain ratios
  mortality compared with infected nonmedicated chicks: less mortality
  weight gain compared with infected nonmedicated chicks: better weight gain
[7]; 5 ppm
  % Mortality: 2.5%
  Feed/Gain: 1.97
  Final Weight: 639.2
  Lesion Scores: 0.35
[7]; 50 ppm
  % Mortality: 2.5%
  Feed/Gain: 1.80
  Final Weight: 699.4
  Lesion Scores: 0.38
Peptococcus magnus; Peptococcus magnus ATCC 14956
  Minimal Inhibitory Concentration: 0.12 µg/mL
Peptococcus magnus; Peptococcus magnus ATCC 29328
  Minimal Inhibitory Concentration: 0.12 µg/mL
Streptococcus pneumoniae; Streptococcus pneumoniae SVI
  Minimal Inhibitory Concentration: 1 µg/mL
Streptococcus pneumoniae; Streptococcus pneumoniae VGH-84-56
  Minimal Inhibitory Concentration: 1 µg/mL
Streptococcus pneumoniae; Streptococcus pneumoniae VGH-84-57
  Minimal Inhibitory Concentration: 2 µg/mL
Streptococcus pneumoniae; Streptococcus pneumoniae VGH-84-58
  Minimal Inhibitory Concentration: 0.25 µg/mL
Streptococcus pneumoniae; Streptococcus pneumoniae VGH-84-59
  Minimal Inhibitory Concentration: 0.25 µg/mL
[8]; Streptococcus sp. (β-hemolytic) C203
  Minimal Inhibitory Concentration: 0.5 µg/mL
[8]; Streptococcus sp. (β-hemolytic) VGH-84-60
  Minimal Inhibitory Concentration: 0.25 µg/mL
[8]; Streptococcus sp. (β-hemolytic) VGH-84-61
  Minimal Inhibitory Concentration: 1 µg/mL
[8]; Streptococcus sp. (β-hemolytic) VGH-84-62
  Minimal Inhibitory Concentration: 1 µg/mL
[8]; Streptococcus sp. (β-hemolytic) VGH-84-63
  Minimal Inhibitory Concentration: 0.12 µg/mL
[8]; Streptococcus sp. (β-hemolytic) VGH-84-64
  Minimal Inhibitory Concentration: 0.12 µg/mL
[9]
  Minimal Inhibitory Concentration: 4 µg/mL
Staphylococcus aureus
  MIC: ≧256 µg/ml
Escherichia coli
  MIC: ≧256 µg/ml
[10]
  Minimal Inhibitory Concentration: 16 µg/mL
Treponema hyodysenteriae [11]; [14]
  MIC: 1 mg/L (≈ 0.815 µM)
Treponema hyodysenteriae [11]; [15]
  MIC: 1 mg/L (≈ 0.815 µM)
Streptococcus uberis
  MIC: 8 mg/L (≈ 6.52 µM)
Pasteurella haemolytica
  MIC: 16 mg/L (≈ 13 µM)
Streptococcus faecalis
  MIC: 8 mg/L (≈ 6.52 µM)
[12]; [16]
  Survival Ratios 7 Days After Infection: 2/5
[12]; single subcutaneous dose 8 mg/kg
  Survival Ratios 7 Days After Infection: 4/5
[12]; [17]
  Survival Ratios 7 Days After Infection: 5/5
[12]; single subcutaneous dose 32 mg/kg
  Survival Ratios 7 Days After Infection: 5/5
[12]; [18]
  Survival Ratios 7 Days After Infection: 5/5
Streptococcus agalactiae
  MIC: 2 to 8 mg/L
